# Experimental data: US6060475A, “Substituted pyrazin-2-yl-sulphonamide-(3-pyridyl) compounds and uses thereof” (Zeneca Limited, priority 1995, dated 2000)
# Tests used:
# [1] = test system: Human ETA or ETB receptors; experiment: Test A: inhibition of [125I]-Endothelin-1 binding to MEL cell membranes expressing recombinant receptor; settings: receptor sub-type (ETA or ETB) not given
# Description: Test A: The endothelin receptor antagonist activity of compounds of formula I may be assessed in vitro by their ability to inhibit binding of [^125 I]-Endothelin-1 to its receptors. Human ETA or ETB receptors (sub-types of the endothelin receptor) were expressed in Mouse Erythroleukemic Cells (MEL cells) by using standard molecular techniques (for example, as described by Sambrook J., Fritsch E. F. & Maniatis T. (1989) Molecular Cloning: A Laboratory Manual, 2nd Edition, Cold Spring Harbor Press, USA). cDNA sequences encoding the human ETA and ETB receptor (Hosoda K. et al (1991), FEBS Lett., 287, 23-26 and Sakamoto A. et al, (1991), Biochem. Biophys Res. Comm., 178, 656-663) are subcloned into pBluescript vector followed by insertion into the MEL cell expression vector pEV as described by Needham et al (1992), Nuc. Acids Res., 20, 997-1003. […]
# [^125 I]-Endothelin-1 binding to MEL cell membranes was measured in incubation buffer containing 50 mM Tris HCl 1 mM CaCl2, 0.05% polyoxyethylenesorbitan monolaurate, 0.1% Bovine Serum Albumin (BSA), 0.02% sodium azide pH 7.4 at 30° C. after 180 minutes incubation. […] Nonspecific binding was measured in the presence of 100 nM unlabelled Endothelin-1. […] The filter discs were punched out and counted in a gamma counter. Compounds are tested in triplicate over a range of concentrations and IC50 (or pIC50) values calculated.
# [2] = test system: pressor response induced by intravenously-administered proendothelin-1; experiment: Test D: antagonism of pressor response to intravenous proendothelin-1 in conscious rat after oral dosing; format: in vivo; settings: rats, dosed orally at 3 mg/kg, determined one hour after administration, n=5, 30 mmHg change level
# Description: Test D: This in vivo test involves the measurement of the antagonist effect of the test compound against the pressor response induced by intravenously-administered proendothelin-1 in a conscious rat preparation.
# Male rats (260-290 g) are anaesthetised with Saffan administered via the tail vein. The right jugular vein and carotid artery are isolated and catheters filled with heparin implanted. These are exteriorised at the back of the neck using a metal trochar and the neck incision closed with autoclips. Rats are housed individually with free access to food and water during the recovery phase. Later in the day, food is removed and the rats are fasted overnight with free access to water. The following day the rats are placed in perspex restraining tubes and the arterial catheter drained and connected to a pressure transducer for measurement of mean arterial pressure. Following a ten minute stabilization period, proendothelin-1 (usually 0.3-1.0 nmol kg^-1) is administered cumulatively until a pressor response of 30 mmHg is achieved. The animals are then returned to their cages and allowed to recover for 2 hours. The test compound is administered orally (by gavage) at a known time point during the recovery period. […] Endothelin receptor antagonism is quantified by calculating dose ratio shifts at the 30 mmHg change level.
smiles,measurement,setting,value
"COc1nc(C)cnc1NS(=O)(=O)c1cccnc1-c1ccc(OC(C)C)cc1 [Example 3, 2-(4-isopropoxyphenyl)-N-(3-methoxy-5-methylpyrazin-2-yl)pyridine-3-sulphonamide]",pIC50 in Test A,[1],8.6
same,mean dose ratio shift on the pressor response to proendothelin-1,[2],2.93
